What was measured:
[1] = Toxicology in rats (5-day and 4-week GLP studies); format: in vivo
Text: (§1) The non-clinical safety profile of I-57 was established in vitro, and in vivo in rats and cynomolgus monkeys in studies up to 4-weeks duration. Based on the outcome of these studies, QTc interval prolongation was identified as the principal safety signal for I-57. There were other toxicities such as diarrhea and vomiting in monkeys, and mortality, clinical signs and target organ toxicities in rats; however, these occurred at exposures far above those expected to result in clinical activity.
Clinical signs, decreases in body weight and food consumption, and clinical pathology changes reflecting inflammation, renal and liver injury, and stress were generally evident in the pre-terminal animals. Kidney toxicity was evident in rats at doses >100 mg/kg/day and was characterized by increased weight, hematuria, proteinuria, with or without increased blood urea and creatinine, degeneration, regeneration and inflammation at 300 mg/kg/day.
Similar exposure in the clinic would require doses in human of approximately 2,000 and 5,000 mg QD based on the human PK model. Activity is anticipated well below this dose level.

[2] = target: T1, TMEM97 (Homo sapiens, UniProt Q5BJF2); assay: Whole cell proteomic analysis in 293T cells; format: cell-based; settings: nearly 8000 proteins identified
T1 construct: endogenous in cells; host or cells: 293T
Description: Other potential degradation targets of I-57 were evaluated in 293T cells using whole cell proteomic analysis. […] Subsequent analyses have confirmed that FIZ1 is degraded by about 50% at a 10 μM concentration of I-57 ([I-57 Investigator's Brochure]). […] FIZ1 is expressed in the neural retina where it transcriptionally represses the differentiation of photoreceptors. FIZ1 is also expressed in non-ocular tissues with unknown function.

[3] = target: T2, IKZF2 (Oryctolagus cuniculus, UniProt A0A5F9CPW0); assay: IKZF2 degradation in primary PBMCs in vitro (FIG. 3); format: cell-based; settings: primary rabbit PBMCs; concentrations up to 10 μM
T2 construct: endogenous in cells; host or cells: primary rabbit PBMCs
Description: FIG. 3. is a bar graph showing the degradation of IKZF2 in primary PBMCs obtained from rabbit, dog, pig, cynomolgus monkey and human, and in primary splenocytes of mouse and rat and treated with Compound I-57.
I-57 mediated degradation of IKZF2 was assessed in primary PBMCs obtained from rabbit, dog, pig, cynomolgus monkey, and human, and in primary splenocytes of mouse and rat. […] Species-specificity due to species specific alteration CRBN primary structure have previously been described with other compounds known to interact with the CRBN ubiquitin ligase complex to elicit protein specific degradation (Krönke et al, 2015).

[4] = target: IKZF2 (Homo sapiens, UniProt Q96SW2+Q9UKS7); assay: IKZF2 protein in total tumor-infiltrating lymphocytes by immunohistochemistry, hPBMC AdT model (FIG. 8); format: in vivo; design: endogenous in cells; host or cells: primary human PBMCs / primary Treg cells; settings: 24 h post the 14th daily dose
Description: FIG. 8A is a bar graph showing the change in the IKZF2 protein levels in total tumor-infiltrating lymphocytes by immunohistochemistry (IHC) at 24 h post the 14th daily dose of 1, 3 or 30 mg/kg Compound I-57.
IKZF2 protein levels in total tumor-infiltrating lymphocytes were also assessed by immunohistochemistry (IHC) at 24 h post the 14th dose of 1, 3 or 30 mg/kg I-57. […] Overall, IKZF2 degradation assessed by IHC was generally consistent with our findings in Tregs by flow cytometry, though dose dependency was less apparent. Together, the data support the finding of profound I-57-mediated IKZF2 degradation in tumor-infiltrating lymphocytes (FIG. 8A and FIG. 8B).

[5] = test system: monkey IKZF2; assay: IKZF2 degradation, species relevance (monkey)
Description: The starting dose of I-57 selected for this study is supported by 4-week GLP toxicology studies performed in cynomolgus monkeys. […] GLP toxicity studies identified 30 mg/kg as the HNSTD in monkey and supported a starting dose up to 100 mg QD in human (BSA scaled HED and using a safety factor of 6). The selected dose of 20 mg is anticipated to result in a significant but sub-maximal IKZF2 degradation in human PBMCs and TILs (50-90%), based on PK/PD modeling of I-57 exposure and IKZF2 degradation in cynomolgus PBMCs. More IKZF2 degradation may be required to change downstream biology. Therefore, 20 mg is considered safe. Escalation from this starting dose will facilitate the determination of the minimal required dose which provides optimal IKZF2 degradation to impact downstream biological activity.

[6] = test system: IKZF2 expression in FOXP3+ T cells from PBMCs; assay: PD after repeated daily oral dosing in immunized cynomolgus monkeys: IKZF2 by flow cytometry (FIG. 9A); format: in vivo, cynomolgus monkey
Description: FIG. 9A. is a graph showing the degradation of IKZF2 measured in FOXP3+ T cells upon repeated daily dosing in immunized cynomolgus monkeys treated daily with Compound I-57. Compound treatment was initiated at day 5.
The PK/PD relationship of I-57 was further examined in cynomolgus monkeys after repeated daily oral doses of 0.1 and 3 mg/kg. In this study, a cohort of animals were initially immunized with an antigen-adjuvant mixture (KLH/Squalene). The experiment was designed to assess the effect of I-57 exposure, and the resulting IKZF2 degradation, on immune response during immunization to test the hypothesis that IKZF2 degradation would result in increased proliferation of stimulated T-cells. In the experiment, daily I-57 oral treatment was initiated 5 days after immunization. An immunization booster dose was administered on day 15. I-57 plasma concentration and IKZF2 expression (as determined by flow cytometry) in FOXP3+ T cells from PBMCs were determined (FIG. 9A and FIG. 9B).
Consistent with previous findings, IKZF2 degradation was detected 24 h after the first dose (at day 6) (FIG. 9A and FIG. 9B). The levels of IKZF2 decreased further upon repeat dosing and reached a steady-state level approximately 72 h after initiation of treatment. This level of degradation was maintained throughout the remainder of the treatment (24 days).

[7] = Toxicology studies incl. 4-week GLP studies in rats and cynomolgus monkeys; format: in vivo; settings: from 4-week GLP toxicology studies in rats (30, 100, 300 mg/kg/day) and cynomolgus monkeys (3, 10, 30 mg/kg/day)
Text: as §1
Preclinical safety data in 4-week GLP toxicology studies in rats (30, 100 and 300 mg/kg/day) and cynomolgus monkeys (3, 10 and 30 mg/kg/day) provide maximum recommended starting dose (MRSD) of 100 mg in humans. Based on non-clinical animal models including AdT studies, cynomolgus vaccination studies and cynomolgus PK/PD studies (See Example 1) I-57 at 20 mg is expected to result in submaximal IKZF2 degradation in PBMCs and tumor. This is considered safe and will permit PK/PD characterization and determination of the lowest dose of I-57 at which maximal detectable IKZF2 degradation is achieved.

IKZF2 (Homo sapiens, UniProt Q96SW2+Q9UKS7), sequence (Q9UKS7 whole entry): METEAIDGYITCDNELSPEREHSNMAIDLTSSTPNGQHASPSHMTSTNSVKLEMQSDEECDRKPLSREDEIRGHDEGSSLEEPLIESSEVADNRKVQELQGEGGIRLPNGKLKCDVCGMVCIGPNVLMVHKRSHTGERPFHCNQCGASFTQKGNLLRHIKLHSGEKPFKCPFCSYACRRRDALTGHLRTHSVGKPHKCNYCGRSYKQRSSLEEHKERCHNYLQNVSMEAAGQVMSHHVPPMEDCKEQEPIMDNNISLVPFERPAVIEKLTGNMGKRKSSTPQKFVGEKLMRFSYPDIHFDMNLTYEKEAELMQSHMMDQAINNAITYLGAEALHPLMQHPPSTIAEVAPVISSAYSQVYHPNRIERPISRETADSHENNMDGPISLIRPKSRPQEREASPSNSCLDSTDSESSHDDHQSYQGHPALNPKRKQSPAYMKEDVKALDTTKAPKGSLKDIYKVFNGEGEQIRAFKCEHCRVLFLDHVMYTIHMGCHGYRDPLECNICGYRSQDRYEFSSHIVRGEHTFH
IKZF2 (Homo sapiens, UniProt Q96SW2+Q9UKS7), sequence (Q96SW2 whole entry): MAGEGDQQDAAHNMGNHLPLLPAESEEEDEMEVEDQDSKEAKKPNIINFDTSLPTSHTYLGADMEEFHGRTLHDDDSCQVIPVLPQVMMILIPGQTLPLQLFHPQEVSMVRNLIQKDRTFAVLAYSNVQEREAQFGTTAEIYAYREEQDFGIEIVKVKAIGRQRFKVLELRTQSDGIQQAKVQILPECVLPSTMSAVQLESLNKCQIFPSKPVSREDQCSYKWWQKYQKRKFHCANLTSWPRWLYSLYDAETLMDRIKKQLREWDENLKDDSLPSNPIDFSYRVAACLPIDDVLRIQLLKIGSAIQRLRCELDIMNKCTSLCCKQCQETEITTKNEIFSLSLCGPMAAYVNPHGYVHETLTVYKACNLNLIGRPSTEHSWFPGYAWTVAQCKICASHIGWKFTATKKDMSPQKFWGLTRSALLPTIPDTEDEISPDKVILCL
IKZF2 (Homo sapiens, UniProt Q96SW2+Q9UKS7), sequence (Q16531 whole entry partner): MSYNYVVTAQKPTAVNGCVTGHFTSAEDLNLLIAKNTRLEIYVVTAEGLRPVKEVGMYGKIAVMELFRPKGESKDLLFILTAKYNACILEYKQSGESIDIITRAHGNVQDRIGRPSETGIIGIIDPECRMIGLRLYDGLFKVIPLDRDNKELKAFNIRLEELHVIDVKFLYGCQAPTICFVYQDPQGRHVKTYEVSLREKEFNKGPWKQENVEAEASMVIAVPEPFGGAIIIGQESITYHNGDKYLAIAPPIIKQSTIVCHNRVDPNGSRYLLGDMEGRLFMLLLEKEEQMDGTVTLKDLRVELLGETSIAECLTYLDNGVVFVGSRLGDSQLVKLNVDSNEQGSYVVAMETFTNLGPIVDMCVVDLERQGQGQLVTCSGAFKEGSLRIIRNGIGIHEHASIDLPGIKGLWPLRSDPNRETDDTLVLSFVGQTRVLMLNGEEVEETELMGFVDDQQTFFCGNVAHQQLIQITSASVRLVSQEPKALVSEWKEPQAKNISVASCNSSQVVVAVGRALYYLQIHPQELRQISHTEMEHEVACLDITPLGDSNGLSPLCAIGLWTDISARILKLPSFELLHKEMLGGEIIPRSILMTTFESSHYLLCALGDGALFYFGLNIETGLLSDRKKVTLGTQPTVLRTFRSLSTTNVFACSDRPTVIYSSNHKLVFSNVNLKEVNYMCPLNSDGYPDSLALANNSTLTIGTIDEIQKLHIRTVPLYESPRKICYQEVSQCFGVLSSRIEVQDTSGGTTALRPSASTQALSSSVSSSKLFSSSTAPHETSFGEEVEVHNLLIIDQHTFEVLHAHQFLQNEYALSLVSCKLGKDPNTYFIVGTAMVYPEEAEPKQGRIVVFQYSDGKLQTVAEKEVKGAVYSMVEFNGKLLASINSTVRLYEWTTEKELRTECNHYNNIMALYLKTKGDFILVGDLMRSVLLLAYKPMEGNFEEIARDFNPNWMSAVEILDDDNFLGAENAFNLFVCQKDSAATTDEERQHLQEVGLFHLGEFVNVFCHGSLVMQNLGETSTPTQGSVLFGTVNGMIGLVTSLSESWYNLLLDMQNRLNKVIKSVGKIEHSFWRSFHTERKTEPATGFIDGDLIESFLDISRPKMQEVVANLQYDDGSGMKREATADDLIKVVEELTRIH
T1 sequence (Q5BJF2 whole entry): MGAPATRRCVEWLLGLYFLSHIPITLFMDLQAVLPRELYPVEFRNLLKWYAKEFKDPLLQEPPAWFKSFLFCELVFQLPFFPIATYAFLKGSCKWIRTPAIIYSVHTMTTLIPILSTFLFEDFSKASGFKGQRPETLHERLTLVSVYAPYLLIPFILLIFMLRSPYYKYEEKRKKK
T2 sequence (A0A5F9CPW0 1-526): as the sequence (Q9UKS7 whole entry) above, with E68D, M234V, I266M, A373S, H423N, A449V counted along it

O=C1CCC(N2Cc3cc(C4CCN(Cc5ccccc5)CC4)ccc3C2=O)C(=O)N1 (stereo not drawn) [Compound I-57, 3-(5-(1-benzylpiperidin-4-yl)-1-oxoisoindolin-2-yl)piperidine-2,6-dione]
human dose required for similar exposure (AUC) ([1]; exposure associated with mortality and toxicity in rats at 300 mg/kg, human PK model): ~5,000 mg QD
urinary bladder findings ([1]; rat, in vivo, 300 mg/kg/day): Degenerative changes
doses at which kidney toxicity was evident ([1]; rats): > 100 mg/kg/day
doses at which mortality occurred ([1]; rats, females): > 300 mg/kg/day
TMEM97 degradation (proteomics) [2]: degraded
degradation of IKZF2 [3]: Degradation was observed
IKZF2 degradation in total tumor-infiltrating lymphocytes (IHC) ([4]; 30 mg/kg): approximately 85%
IKZF2 levels in total tumor-infiltrating lymphocytes (IHC) ([4]; 1, 3 and 30 mg/kg): Robust reduction in IKZF2 levels
degradation of monkey IKZF2 [5]: can degrade monkey
time to steady-state level of IKZF2 ([6]; after initiation of treatment, repeat daily dosing): approximately 72 h
time at which IKZF2 degradation was detected ([6]; after the first dose (at day 6), daily oral 0.1 and 3 mg/kg): 24 h
maximum recommended starting dose (MRSD) in humans [7]: 100 mg

— US20240245670A1, “DOSING REGIMEN AND PHARMACEUTICAL COMBINATION COMPRISING 3-(1-OXOISOINDOLIN-2-YL)PIPERIDINE-2,6-DIONE DERIVATIVES” (Novartis AG, priority 2018, published 2024)
